Assays:
[1] = molecular target: T1, DDB1DB/DCAF15 and RBM39 R1R2 complex (Homo sapiens, UniProt Q14498+Q66K64); assay: DCAF15 RBM39 Complex Formation Assay (FRET); assay type: binding; conditions: FRET ratio Em 665/Em 615, incubated overnight at 4° C.
T1 construct: Amino acids 150 to 331 of RBM39 were cloned into pGEX4T3; GST (from vector pGEX4T3); TEV cleavage site (N); made in house; host or cells: DDB1DB/His-DCAF15: baculovirus/Sf9 co-expression; RBM39 R1R2: E. coli (pGEX4T3)
In short: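 Ternary complex formation read by TR-FRET (Em 665/615, excitation 340 nm) after overnight incubation at 4° C of 20 nM baculovirus DDB1DB/His-DCAF15 and 50 nM E. coli RBM39 RRM1-RRM2 FLAG fragment with 14-point, 3-fold compound dilutions from 1 μM; EC50 from 4-parameter fit.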

[2] = system: HCT116 human colorectal carcinoma cells; assay: CellTiter-Glo Luminescent Cell Viability Assay; assay type: cell-based; conditions: HCT-116, 72 h, 3 days
In short: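 CellTiter-Glo luminescence gave viability after 3 days of compound exposure in HCT116 cells grown in DMEM/10% FBS. Final concentrations ran from 5 to 0.0002 […] in 1:3 steps, each in triplicate, with IC50 derived from the curves.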

T1 sequence (Q66K64 whole entry, the tested form may be a part): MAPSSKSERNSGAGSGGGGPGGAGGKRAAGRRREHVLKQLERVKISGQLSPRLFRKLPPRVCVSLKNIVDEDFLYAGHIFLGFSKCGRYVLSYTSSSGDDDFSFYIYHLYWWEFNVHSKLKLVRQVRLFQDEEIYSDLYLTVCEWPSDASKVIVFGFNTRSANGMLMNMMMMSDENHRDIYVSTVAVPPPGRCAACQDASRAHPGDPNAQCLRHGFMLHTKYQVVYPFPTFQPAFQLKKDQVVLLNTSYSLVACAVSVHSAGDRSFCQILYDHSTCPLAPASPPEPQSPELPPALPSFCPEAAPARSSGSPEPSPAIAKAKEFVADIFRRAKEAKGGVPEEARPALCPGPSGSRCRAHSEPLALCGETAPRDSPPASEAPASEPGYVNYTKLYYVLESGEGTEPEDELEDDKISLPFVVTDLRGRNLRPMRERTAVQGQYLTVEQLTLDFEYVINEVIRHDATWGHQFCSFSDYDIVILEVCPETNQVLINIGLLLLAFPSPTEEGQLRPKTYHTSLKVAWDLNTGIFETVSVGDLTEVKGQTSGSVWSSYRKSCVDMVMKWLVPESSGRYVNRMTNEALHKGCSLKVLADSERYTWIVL
T1 sequence (Q14498 150-331): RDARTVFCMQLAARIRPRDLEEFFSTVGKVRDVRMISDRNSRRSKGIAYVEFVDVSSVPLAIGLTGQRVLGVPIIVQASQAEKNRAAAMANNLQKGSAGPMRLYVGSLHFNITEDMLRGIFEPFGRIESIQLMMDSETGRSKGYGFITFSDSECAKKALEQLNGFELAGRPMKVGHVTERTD
T1 sequence (Q16531 with tags, fused parts or gaps DEL396-708 partner): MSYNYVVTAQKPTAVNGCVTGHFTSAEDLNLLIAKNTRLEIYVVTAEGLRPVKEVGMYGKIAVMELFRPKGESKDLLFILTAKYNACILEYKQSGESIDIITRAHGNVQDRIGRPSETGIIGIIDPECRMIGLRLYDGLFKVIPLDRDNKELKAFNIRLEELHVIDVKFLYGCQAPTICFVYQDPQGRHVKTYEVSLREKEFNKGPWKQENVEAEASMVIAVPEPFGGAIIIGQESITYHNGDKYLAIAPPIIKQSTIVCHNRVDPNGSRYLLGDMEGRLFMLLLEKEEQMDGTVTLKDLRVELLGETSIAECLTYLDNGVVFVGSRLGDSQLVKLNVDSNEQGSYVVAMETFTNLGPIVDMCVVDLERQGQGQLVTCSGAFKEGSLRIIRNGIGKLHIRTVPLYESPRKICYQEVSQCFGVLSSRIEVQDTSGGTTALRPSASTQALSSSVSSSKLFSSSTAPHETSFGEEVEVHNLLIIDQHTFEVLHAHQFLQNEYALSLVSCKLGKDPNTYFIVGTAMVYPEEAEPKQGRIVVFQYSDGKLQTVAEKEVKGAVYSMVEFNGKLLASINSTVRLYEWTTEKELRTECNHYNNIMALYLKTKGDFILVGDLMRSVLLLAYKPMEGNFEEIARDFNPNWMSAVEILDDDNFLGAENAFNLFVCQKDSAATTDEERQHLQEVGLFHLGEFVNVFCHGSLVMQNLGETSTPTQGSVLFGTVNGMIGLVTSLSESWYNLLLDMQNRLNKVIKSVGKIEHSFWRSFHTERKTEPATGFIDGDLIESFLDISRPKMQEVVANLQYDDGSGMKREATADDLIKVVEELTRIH

Row | Structure (SMILES) | IC50 [1] | EC50 [2]
1 | C[C@H]([C@@H](C)O)n1cc(S(=O)(=O)Nc2ccc(Cl)c3c(C#N)c[nH]c23)cn1 [Compound 286, N-(4-chloro-3-cyano-1H-indol-7-yl)-1-[(1R,2R)-2-hydroxy-1-methyl-propyl]pyrazole-4-sulfonamide] | < 0.25 µM | 0.25 to 1 µM
2 | O=S(=O)(Nc1cccc2c(Cl)c[nH]c12)c1cnn(-c2ccc(F)cn2)c1 [Compound 21, N-(3-chloro-1H-indol-7-yl)-1-(5-fluoro-2-pyridyl)pyrazole-4-sulfonamide] | 0.25 to 1 µM | > 1 µM
3 | Cc1ccc(NS(=O)(=O)c2cnn(CCF)c2)c2[nH]cc(C#N)c12 [Compound 36, N-(3-cyano-4-methyl-1H-indol-7-yl)-1-(2-fluoroethyl)pyrazole-4-sulfonamide] | < 0.25 µM | < 0.25 µM
4 | CC(C)(CO)n1ncc(S(=O)(=O)Nc2ccc(F)c3c(C#N)c[nH]c23)c1Cl [Compound 245, 5-chloro-N-(3-cyano-4-fluoro-1H-indol-7-yl)-1-(2-hydroxy-1,1-dimethyl-ethyl)pyrazole-4-sulfonamide] | < 0.25 µM | 0.25 to 1 µM
5 | C[C@H](O)Cn1cc(S(=O)(=O)Nc2ccc(Cl)c3c(C#N)c[nH]c23)cn1 [Compound 196, N-(4-chloro-3-cyano-1H-indol-7-yl)-1-[(2S)-2-hydroxypropyl]pyrazole-4-sulfonamide] | < 0.25 µM | 0.25 to 1 µM
6 | Cc1ccc(NS(=O)(=O)c2cnn(C(C)CC(C)(C)O)c2)c2[nH]cc(C#N)c12 (stereo not shown) [Compound 242, N-(3-cyano-4-methyl-1H-indol-7-yl)-1-(3-hydroxy-1,3-dimethyl-butyl)pyrazole-4-sulfonamide] | < 0.25 µM | < 0.25 µM
7 | Cc1ccc(NS(=O)(=O)c2cnn(CC(F)(F)F)c2)c2[nH]cc(C#N)c12 [Compound 60, N-(3-cyano-4-methyl-1H-indol-7-yl)-1-(2,2,2-trifluoroethyl)pyrazole-4-sulfonamide] | < 0.25 µM | < 0.25 µM
8 | Cc1ccc(NS(=O)(=O)c2cnn(C3(CC#N)COC3)c2)c2[nH]cc(C#N)c12 [Compound 157, N-(3-cyano-4-methyl-1H-indol-7-yl)-1-[3-(cyanomethyl)oxetan-3-yl]pyrazole-4-sulfonamide] | < 0.25 µM | 0.25 to 1 µM
9 | C[C@@H](CO)n1cc(S(=O)(=O)Nc2ccc(F)c3c(C#N)c[nH]c23)cn1 [Compound 267, N-(3-cyano-4-fluoro-1H-indol-7-yl)-1-[(1S)-2-hydroxy-1-methyl-ethyl]pyrazole-4-sulfonamide] | < 0.25 µM | 0.25 to 1 µM
10 | Cc1ccc(NS(=O)(=O)c2cnn(C3(C)COC3)c2)c2[nH]cc(C#N)c12 [Compound 107, N-(3-cyano-4-methyl-1H-indol-7-yl)-1-(3-methyloxetan-3-yl)pyrazole-4-sulfonamide] | < 0.25 µM | < 0.25 µM
11 | O=S(=O)(Nc1ccc(Cl)c2c(Cl)c[nH]c12)c1cnn(C(CO)(CO)CCl)c1 [Compound 166, 1-[1-(chloromethyl)-2-hydroxy-1-(hydroxymethyl)ethyl]-N-(3,4-dichloro-1H-indol-7-yl)pyrazole-4-sulfonamide] | < 0.25 µM | 0.25 to 1 µM
12 | CCn1ncc(S(=O)(=O)Nc2ccc(C)c3c(C#N)c[nH]c23)c1N [Compound 271, 5-amino-N-(3-cyano-4-methyl-1H-indol-7-yl)-1-ethyl-pyrazole-4-sulfonamide] | < 0.25 µM | < 0.25 µM
13 | Cc1ccc(NS(=O)(=O)c2cnn(C3CCC3)c2)c2[nH]cc(C#N)c12 [Compound 61, N-(3-cyano-4-methyl-1H-indol-7-yl)-1-cyclobutyl-pyrazole-4-sulfonamide] | < 0.25 µM | 0.25 to 1 µM
14 | Cc1ccc(NS(=O)(=O)c2cnn(C3(CO)CC3)c2)c2[nH]cc(C#N)c12 [Compound 268, N-(3-cyano-4-methyl-1H-indol-7-yl)-1-[1-(hydroxymethyl)cyclopropyl]pyrazole-4-sulfonamide] | < 0.25 µM | < 0.25 µM
15 | N#Cc1c[nH]c2c(NS(=O)(=O)c3c[nH]nc3N)ccc(Cl)c12 [Compound 296, 3-amino-N-(4-chloro-3-cyano-1H-indol-7-yl)-1H-pyrazole-4-sulfonamide] | < 0.25 µM | > 1 µM
16 | COC(Cn1cc(S(=O)(=O)Nc2cccc3c(Cl)c[nH]c23)cn1)OC [Compound 32, N-(3-chloro-1H-indol-7-yl)-1-(2,2-dimethoxyethyl)pyrazole-4-sulfonamide] | < 0.25 µM | 0.25 to 1 µM
17 | N#Cc1c[nH]c2c(NS(=O)(=O)c3cnn([C@@H](CO)C(F)F)c3)ccc(F)c12 [Compound 228, N-(3-cyano-4-fluoro-1H-indol-7-yl)-1-[(1S)-2,2-difluoro-1-(hydroxymethyl)ethyl]pyrazole-4-sulfonamide] | < 0.25 µM | > 1 µM
18 | Cc1ccc(NS(=O)(=O)c2cnn(C)c2C)c2[nH]cc(C#N)c12 [Compound 113, N-(3-cyano-4-methyl-1H-indol-7-yl)-1,5-dimethyl-pyrazole-4-sulfonamide] | < 0.25 µM | < 0.25 µM
19 | Cc1ccc(NS(=O)(=O)c2cnn(S(C)(=O)=O)c2)c2[nH]cc(C#N)c12 [Compound 93, N-(3-cyano-4-methyl-1H-indol-7-yl)-1-methylsulfonyl-pyrazole-4-sulfonamide] | < 0.25 µM | 0.25 to 1 µM
20 | Cc1ccc(NS(=O)(=O)c2cnn(C(F)(F)CO)c2)c2[nH]cc(C#N)c12 [Compound 301, N-(3-cyano-4-methyl-1H-indol-7-yl)-1-(1,1-difluoro-2-hydroxy-ethyl)pyrazole-4-sulfonamide] | < 0.25 µM | < 0.25 µM
21 | N#Cc1c[nH]c2c(NS(=O)(=O)c3cnn([C@@H](CO)C(F)F)c3)ccc(Cl)c12 [Compound 226, N-(4-chloro-3-cyano-1H-indol-7-yl)-1-[(1S)-2,2-difluoro-1-(hydroxymethyl)ethyl]pyrazole-4-sulfonamide] | < 0.25 µM | 0.25 to 1 µM
22 | CCCn1cc(S(=O)(=O)Nc2ccc(C)c3c(C#N)c[nH]c23)cn1 [Compound 90, N-(3-cyano-4-methyl-1H-indol-7-yl)-1-propyl-pyrazole-4-sulfonamide] | < 0.25 µM | < 0.25 µM
23 | N#Cc1c[nH]c2c(NS(=O)(=O)c3cnn([C@H]4C[C@H](O)C4)c3)ccc(Cl)c12 [Compound 175, N-(4-chloro-3-cyano-1H-indol-7-yl)-1-(3-hydroxycyclobutyl)pyrazole-4-sulfonamide] | < 0.25 µM | 0.25 to 1 µM
24 | N#Cc1c[nH]c2c(NS(=O)(=O)c3cnn(CC(F)F)c3)ccc(Cl)c12 [Compound 91, N-(4-chloro-3-cyano-1H-indol-7-yl)-1-(2,2-difluoroethyl)pyrazole-4-sulfonamide] | < 0.25 µM | 0.25 to 1 µM
25 | N#Cc1c[nH]c2c(NS(=O)(=O)c3cnn(C4(CO)CC4)c3)ccc(Cl)c12 [Compound 269, N-(4-chloro-3-cyano-1H-indol-7-yl)-1-[1-(hydroxymethyl)cyclopropyl]pyrazole-4-sulfonamide] | < 0.25 µM | 0.25 to 1 µM
26 | N#Cc1c[nH]c2c(NS(=O)(=O)c3cnn([C@@H](CO)CF)c3)ccc(Cl)c12 [Compound 238, N-(4-chloro-3-cyano-1H-indol-7-yl)-1-[(1S)-1-(fluoromethyl)-2-hydroxy-ethyl]pyrazole-4-sulfonamide] | < 0.25 µM | 0.25 to 1 µM

Source: patent publication US20250368627A1, “PYRAZOLESULFONAMIDES AS ANTITUMOR AGENTS” (Peloton Therapeutics, Inc., a fully owned subsidiary of …, priority 2019, published 2025)
